In this test the target is T1, F508delCFTR cell surface expression in CFBE41o-F508delCFTR-HRP cells (Homo sapiens, UniProt P13569, DEL508-508).
T1 construct: fused on or other part: Horseradish peroxidase (HRP) reporter inserted in the fourth exofacial (extracellular) loop of CFTR; expression is doxycycline-inducible
The test can be described thus: Cell Surface Expression-Horse Radish Peroxidase (CSE-HRP) Assay. Format: cell-based. To be noted: for EC50: CFBE41o-F508delCFTR-HRP cells, 18-24 hours at 33° C., 8-point curve, highest concentration 20 μM; for Maximum % activity (%): maximum at any tested concentration, normalized to on-plate positive control (3 μM). An excerpt: Cell Surface Expression-Horse Radish Peroxidase (CSE-HRP) Assay:
A cellular assay for measuring the F508delCFTR cell surface expression after correction with test compounds was developed in human lung derived epithelial cell line (CFBE41o-) (Veit G et al, (2012) Mol Biol Cell. 23(21): 4188-4202). This was achieved by expressing the F508delCFTR mutation along with a horseradish peroxidase (HRP) in the fourth exofacial loop and then measuring the HRP activity using luminescence readout from these cells, CFBE41o-F508delCFTR-HRP, that were incubated overnight with the test corrector compounds. Briefly, for this primary assay, the CFBE41o-F508delCFTR-HRP cells were plated in 384-well plates (Greiner Bio-one; Cat 781080) at 4,000 cells/well along with 0.5 μg/mL doxycycline to induce the F508delCFTR-HRP expression and further incubated at 37° C., 5% CO2 for 72 hours. The test compounds were then added at the required concentrations and further incubated for 18-24 hours at 33° C. The highest concentration tested was 20 μM with an 8-point concentration response curve using a 3-fold dilution. Three replicate plates were run to determine one EC50. All plates contained negative controls (dimethyl sulfoxide, DMSO) and positive controls (3 μM of 3-[(2R,4R)-4-({[1-(2,2-difluoro-1,3-benzodioxol-5-yl)cyclopropyl]carbonyl}amino)-7-methoxy-3,4-dihydro-2H-chromen-2-yl]benzoic acid) as well as on-plate concentration response of the positive control. Post incubation, the plates were washed 5× times with Dulbecco's phosphate buffered saline (DPBS), followed by the addition of the HRP substrate, luminol (50 μL), and measuring the HRP activity using luminescence readout on EnVision® Multilabel Plate Reader (Perkin Elmer; product number 2104-0010). The raw counts from the experiment are analyzed using Accelrys® Assay Explorer v3.3.
Z′ greater than 0.5 was used as passing quality control criteria for the plates.
The Z′ is defined as: 1−[3*SDPositive Control+3*SDNegative Control/Absolute(MeanPositive Control−MeanNegative Control)] wherein “SD” is standard deviation.
The % activity measured at each of the 8 test concentrations of the test compound was normalized to the on-plate positive control using the following formula: % activity=[(test compound response DMSO response)/(positive control response DMSO response)]*100
The maximum % activity achieved for the test compound at any tested concentration is presented in Table 1 along with the EC50 calculated using the following general sigmoidal curve with variable Hill slope equation (described as Model 42 in the Accelrys® Assay Explorer v3.3 software): y=(a−d)/(1+(x/c)^b)+d
General sigmoidal curve with concentration, response, top, bottom, EC50 and Hill slope.
This model describes a sigmoidal curve with an adjustable baseline, a. The equation can be used to fit curves where response is either increasing or decreasing with respect to the independent variable, “x”.
“x” is a concentration of drug under test.
“a” is the maximum response, and “d” is the minimum response
“c” is the inflection point (EC50) for the curve. That is, “y” is halfway between the lower and upper asymptotes when x=c.
“b” is the slope-factor or Hill coefficient. The sign of b is positive when the response increases with increasing dose and is negative when the response decreases with increasing dose (inhibition).

In general, EC50 refers to the concentration needed to bring the measured effect to its halfway point. The low end stands for higher potency in that assay, the high end for lower potency in that assay.

T1 sequence (P13569 with tags, fused parts or gaps DEL508-508 limits assumed): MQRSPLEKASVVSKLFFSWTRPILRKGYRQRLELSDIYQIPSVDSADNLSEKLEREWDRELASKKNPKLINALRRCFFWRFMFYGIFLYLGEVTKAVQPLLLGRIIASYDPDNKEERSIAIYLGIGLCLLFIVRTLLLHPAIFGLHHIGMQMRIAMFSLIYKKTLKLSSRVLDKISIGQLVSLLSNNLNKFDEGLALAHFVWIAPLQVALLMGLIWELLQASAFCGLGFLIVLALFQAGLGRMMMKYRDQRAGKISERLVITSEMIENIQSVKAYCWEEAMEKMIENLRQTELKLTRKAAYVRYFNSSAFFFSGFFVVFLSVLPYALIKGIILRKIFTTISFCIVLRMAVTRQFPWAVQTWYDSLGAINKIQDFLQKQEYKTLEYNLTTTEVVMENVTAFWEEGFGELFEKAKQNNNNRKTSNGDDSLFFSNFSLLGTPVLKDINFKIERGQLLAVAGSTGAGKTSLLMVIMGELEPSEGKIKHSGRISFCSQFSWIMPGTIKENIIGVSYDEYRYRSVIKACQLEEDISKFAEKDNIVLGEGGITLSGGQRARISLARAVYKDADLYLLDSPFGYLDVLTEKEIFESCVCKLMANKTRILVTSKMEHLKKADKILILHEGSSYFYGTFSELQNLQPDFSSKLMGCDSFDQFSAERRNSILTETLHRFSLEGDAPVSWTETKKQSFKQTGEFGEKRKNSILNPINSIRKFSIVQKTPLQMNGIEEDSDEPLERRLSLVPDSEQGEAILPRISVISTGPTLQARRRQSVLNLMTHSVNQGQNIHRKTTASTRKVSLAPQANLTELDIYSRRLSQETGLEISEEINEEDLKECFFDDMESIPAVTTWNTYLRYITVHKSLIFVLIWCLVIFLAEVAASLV
T1 sequence (P13569 919-1480 limits assumed, stated change not applied): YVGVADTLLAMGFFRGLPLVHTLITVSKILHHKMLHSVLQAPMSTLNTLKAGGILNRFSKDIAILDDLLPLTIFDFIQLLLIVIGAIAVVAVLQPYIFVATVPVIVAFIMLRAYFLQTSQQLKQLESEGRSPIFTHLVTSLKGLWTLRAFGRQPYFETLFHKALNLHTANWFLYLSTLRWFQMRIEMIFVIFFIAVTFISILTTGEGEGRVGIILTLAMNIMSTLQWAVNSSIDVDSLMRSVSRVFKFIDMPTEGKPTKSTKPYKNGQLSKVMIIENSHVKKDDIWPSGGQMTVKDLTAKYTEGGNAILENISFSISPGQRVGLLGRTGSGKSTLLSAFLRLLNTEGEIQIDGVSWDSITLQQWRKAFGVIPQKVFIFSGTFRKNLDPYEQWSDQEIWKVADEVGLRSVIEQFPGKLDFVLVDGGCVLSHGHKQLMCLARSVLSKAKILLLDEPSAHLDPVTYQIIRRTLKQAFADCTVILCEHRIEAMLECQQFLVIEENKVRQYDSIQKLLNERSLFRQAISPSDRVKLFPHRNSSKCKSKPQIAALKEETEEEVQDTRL

Turning to `CC(C)(C)OC(=O)CN1CCC([C@@H]2C[C@H](NC(=O)[C@@]3(C)COc4cc5c(cc43)OC(F)(F)O5)c3ccc(OC(F)(F)F)cc3O2)CC1` [Example 183, tert-butyl {4-[(2S,4S)-4-{[(7R)-2,2-difluoro-7-methyl-6,7-dihydro-2H-furo[2,3-f][1,3]benzodioxole-7-carbonyl]amino}-7-(trifluoromethoxy)-3,4-dihydro-2H-1-benzopyran-2-yl]piperidin-1-yl}acetate], the EC50 was 2220 nM and the “Maximum % activity (%)” value was 60%.

For the compound `COc1ccc2c(c1)O[C@@H](c1ccc(C(=O)NCC(N)=O)cn1)C[C@H]2NC(=O)[C@@]1(C)COc2cc3c(cc21)OC(F)(F)O3` [Example 227, N-(2-amino-2-oxoethyl)-6-[(2R,4R)-4-{[(7R)-2,2-difluoro-7-methyl-6,7-dihydro-2H-furo[2,3-f][1,3]benzodioxole-7-carbonyl]amino}-7-methoxy-3,4-dihydro-2H-1-benzopyran-2-yl]pyridine-3-carboxamide], a half-maximal effect (EC50) was put at 70 nM and the “Maximum % activity (%)” value worked out at 113%.

On to `COc1ccc2c(c1)O[C@@H](c1cccc(C(=O)O)c1)C[C@H]2NC(=O)[C@@]1(C)COc2cc3c(cc21)OC(F)(F)O3` [Example 14, 3-[(2R,4R)-4-{[(7R)-2,2-difluoro-7-methyl-6,7-dihydro-2H-furo[2,3-f][1,3]benzodioxole-7-carbonyl]amino}-7-methoxy-3,4-dihydro-2H-1-benzopyran-2-yl]benzoic acid], for which it took 380 nM to reach a half-maximal effect (EC50) and the “Maximum % activity (%)” value worked out at 187%.

Consider `CC(C)(C)OC(=O)N[C@H]1CC[C@H]([C@H]2C[C@@H](NC(=O)[C@@]3(C)COc4cc5c(cc43)OC(F)(F)O5)c3ccc(OC(F)F)cc3O2)CC1` [Example 199, tert-butyl {trans-4-[(2R,4R)-7-(difluoromethoxy)-4-{[(7R)-2,2-difluoro-7-methyl-6,7-dihydro-2H-furo[2,3-f][1,3]benzodioxole-7-carbonyl]amino}-3,4-dihydro-2H-1-benzopyran-2-yl]cyclohexyl}carbamate], for which the response was half-maximal at 210 nM (EC50) and the “Maximum % activity (%)” value came out at 149%.

On to `COc1ccc2c(c1)O[C@@H](c1ccc(C(=O)NC[C@H]3C[C@H](O)C3)cn1)C[C@H]2NC(=O)[C@@]1(C)COc2cc3c(cc21)OC(F)(F)O3` [Example 245, 6-[(2R,4R)-4-{[(7R)-2,2-difluoro-7-methyl-6,7-dihydro-2H-furo[2,3-f][1,3]benzodioxole-7-carbonyl]amino}-7-methoxy-3,4-dihydro-2H-1-benzopyran-2-yl]-N-[(trans-3-hydroxycyclobutyl)methyl]pyridine-3-carboxamide], for which the half-maximal effective concentration (EC50) came to 50 nM and the “Maximum % activity (%)” value was found to be 107%.

For `COc1ccc2c(c1)O[C@H](c1ccc(=O)[nH]n1)C[C@H]2NC(=O)[C@@]1(C)COc2cc3c(cc21)OC(F)(F)O3` [Example 200, (7R)-2,2-difluoro-N-[(2S,4R)-7-methoxy-2-(6-oxo-1,6-dihydropyridazin-3-yl)-3,4-dihydro-2H-1-benzopyran-4-yl]-7-methyl-6,7-dihydro-2H-furo[2,3-f][1,3]benzodioxole-7-carboxamide], the concentration for a half-maximal effect (EC50) is 70 nM and the “Maximum % activity (%)” value is recorded as 132%.

Turning to `COc1ccc2c(c1)O[C@@H](c1ccc(C(=O)NC(CO)c3ccccc3)cn1)C[C@H]2NC(=O)[C@@]1(C)COc2cc3c(cc21)OC(F)(F)O3` (stereo partly drawn) [Example 216, 6-[(2R,4R)-4-{[(7R)-2,2-difluoro-7-methyl-6,7-dihydro-2H-furo[2,3-f][1,3]benzodioxole-7-carbonyl]amino}-7-methoxy-3,4-dihydro-2H-1-benzopyran-2-yl]-N-(2-hydroxy-1-phenylethyl)pyridine-3-carboxamide], the midpoint of the response, the EC50, lay at 30 nM and the “Maximum % activity (%)” value turned out to be 130%.

Take `COc1ccc2c(c1)O[C@@H](COC[C@H](O)CO)C[C@H]2NC(=O)[C@@]1(C)COc2cc3c(cc21)OC(F)(F)O3` [Example 274, (7R)—N-[(2R,4R)-2-{[(2R)-2,3-dihydroxypropoxy]methyl}-7-methoxy-3,4-dihydro-2H-1-benzopyran-4-yl]-2,2-difluoro-7-methyl-6,7-dihydro-2H-furo[2,3-f][1,3]benzodioxole-7-carboxamide]: the response was half-maximal at 850 nM (EC50) and the “Maximum % activity (%)” value is reported as 99%.

Take `C[C@]1(C(=O)Nc2cccc(-c3ccc(C(=O)O)cc3)n2)COc2cc3c(cc21)OC(F)(F)O3` [Example 81, 4-(6-{[(7R)-2,2-difluoro-7-methyl-6,7-dihydro-2H-furo[2,3-f][1,3]benzodioxole-7-carbonyl]amino}pyridin-2-yl)benzoic acid]: the response was half-maximal at 1400 nM (EC50) and the “Maximum % activity (%)” value is reported as 200%.

On to `CCOC(=O)[C@H]1CC[C@H]([C@@H]2C[C@H](NC(=O)[C@@]3(C)COc4cc5c(cc43)OC(F)(F)O5)c3ccc(OC(F)F)cc3O2)CC1` [Example 159, ethyl trans-4-[(2S,4S)-7-(difluoromethoxy)-4-{[(7R)-2,2-difluoro-7-methyl-6,7-dihydro-2H-furo[2,3-f][1,3]benzodioxole-7-carbonyl]amino}-3,4-dihydro-2H-1-benzopyran-2-yl]cyclohexane-1-carboxylate], for which the EC50 turned out to be 1020 nM and the “Maximum % activity (%)” value is on record as 82%.

As to `C[C@]1(C(=O)N[C@@H]2C[C@H]([C@H]3CC[C@H](C(=O)N4CCOCC4CO)CC3)Oc3cc(OC(F)(F)F)ccc32)COc2cc3c(cc21)OC(F)(F)O3` (stereo partly drawn) [Example 257, (7R)-2,2-difluoro-N-[(2R,4R)-2-{trans-4-[3-(hydroxymethyl)morpholine-4-carbonyl]cyclohexyl}-7-(trifluoromethoxy)-3,4-dihydro-2H-1-benzopyran-4-yl]-7-methyl-6,7-dihydro-2H-furo[2,3-f][1,3]benzodioxole-7-carboxamide], a half-maximal response (EC50) required 70 nM and the “Maximum % activity (%)” value amounted to 170%.

For `C[C@]1(C(=O)Nc2cc(-c3ccccc3)cn(C[C@@H](O)CO)c2=O)COc2cc3c(cc21)OC(F)(F)O3` [Example 100, (7R)—N-{1-[(2R)-2,3-dihydroxypropyl]-2-oxo-5-phenyl-1,2-dihydropyridin-3-yl}-2,2-difluoro-7-methyl-6,7-dihydro-2H-furo[2,3-f][1,3]benzodioxole-7-carboxamide], a half-maximal effect (EC50) was put at 450 nM and the “Maximum % activity (%)” value is recorded as 85%.

Regarding `Cc1ccc(NC(=O)[C@@]2(C)COc3cc4c(cc32)OC(F)(F)O4)nc1-c1cccc(S(=O)(=O)NC2CC2)c1` [Example 124, (7R)—N-{6-[3-(cyclopropylsulfamoyl)phenyl]-5-methylpyridin-2-yl}-2,2-difluoro-7-methyl-6,7-dihydro-2H-furo[2,3-f][1,3]benzodioxole-7-carboxamide], a half-maximal response (EC50) required 740 nM and the “Maximum % activity (%)” value is reported as 124%.

Regarding `COc1ccc2c(c1)O[C@@H](c1cccc(C(=O)O)c1)C[C@H]2NC(=O)[C@]1(C)CCc2cc3c(cc21)OC(F)(F)O3` (single isomer, unassigned) [Example 56], the concentration for a half-maximal effect (EC50) was 880 nM and the “Maximum % activity (%)” value is 107%.

As to `CC1(C(=O)Nc2cccc(C(=O)NC[C@@H](O)CO)n2)COc2cc3c(cc21)OC(F)(F)O3` (stereo partly drawn) [Example 65, 6-[(2,2-difluoro-7-methyl-6,7-dihydro-2H-furo[2,3-f][1,3]benzodioxole-7-carbonyl)amino]-N-[(2R)-2,3-dihydroxypropyl]pyridine-2-carboxamide], the EC50 is more than 20000 nM and the “Maximum % activity (%)” value stood at 1%.

On to `CC(C)(CO)c1cc2cc(NC(=O)[C@@]3(C)COc4cc5c(cc43)OC(F)(F)O5)c(F)cc2[nH]1` [Example 143, (7R)-2,2-difluoro-N-[6-fluoro-2-(1-hydroxy-2-methylpropan-2-yl)-1H-indol-5-yl]-7-methyl-6,7-dihydro-2H-furo[2,3-f][1,3]benzodioxole-7-carboxamide], for which the EC50 is 490 nM and the “Maximum % activity (%)” value was found to be 129%.

These data come from US9840513B2 (AbbVie S.à.r.l., priority 2015, dated 2017).
